Assay results taken from patent publication US9198893B2, “Combination antitumor therapy” (GALERA LABS, LLC, priority 2008, dated 2015).

Legend:
[1] = system: CT26 mouse colon tumor; assay: Mouse colon tumor model, first experiment (CT26 fragments implanted in BALB/c mice); format: in vivo; details: SOD mimetic 6 mg/kg IP twice daily from day 6, combined with gemcitabine 80 mg/kg IP on days 6, 9, 12, 15; compared with gemcitabine alone
Procedure: A. In a first experiment, fragments of CT26 mouse colon tumor were implanted in female BALB/c mice and allowed to grow for 6 days to a size of about 110 mg (107-115 mg).
On this day, day 6, mice were administered 6 mg/kg of KM4403 or KM4419 intraperitoneally (IP) and dosing was continued twice daily for the duration of the study.
In some groups, gemcitabine was administered on days 6, 9, 12 and 15 at a dosage of 80 mg/kg, also via IP, 10 minutes after the administration of KM4403 or KM4419.

[2] = combination with interleukin-2; Samlowski et al., Nature Medicine (2003); cited from earlier work
[3] = Activity of superoxide dismutase mimetic toward hydrogen peroxide (selectivity); format: biochemical
[4] = system: C26 colon tumor; assay: Mouse colon tumor model, second experiment (C26 fragments implanted in BALB/c mice); format: in vivo; details: KM4419 10 mg/kg or 20 mg/kg twice daily from day 7, combined with gemcitabine 120 mg/kg IP on days 7, 13, 16, both KM4419 dosage levels, FIG. 1
Procedure: B. In a second experiment, fragments of C26 colon tumor were implanted in female BALB/c mice and grown until day 7 at which point they averaged 123 mg.
Groups 1 and 2 (n=8) were given 10 mg/kg or 20 mg/kg of KM4419 twice daily starting at day 7.
In groups 3 and 4 (n=8), gemcitabine was administered at 120 mg/kg or 160 mg/kg IP on days 7, 13 and 16.
In groups 5 and 6 (n=8), both gemcitabine and KM4419 were administered according to the foregoing regimens. Gemcitabine was administered 10 minutes after KM4419 in these groups. The levels of KM4419 were 10 mg/kg and 20 mg/kg, respectively, and the dose of gemcitabine was 120 mg/kg.

[5] = system: human A549 non-small lung carcinoma cells; assay: Non-small cell lung cancer tumor model (A549 cells implanted into flanks of BALB/c mice); format: in vivo; details: KM4419 30 mg/kg IP on days 9-23, combined with paclitaxel 12.5 mg/kg IP on days 9 and 13; compared with either drug alone; FIG. 2
Procedure: In a manner similar to that of Example 1, human A549 non-small lung carcinoma cells were implanted into the flanks of female BALB/c mice, and the tumors were allowed to grow until day 9. Group 1 was administered only vehicle. Group 2 (n=10) was administered only paclitaxel at 12.5 mg/kg IP on days 9 and 13. In group 3 (n=10), the mice were administered 30 mg/kg of KM4419 IP on days 9-23. In group 4 (n=10), a combination of these protocols was administered.

Molecule | tumor size [1] | activity toward hydrogen peroxide [3] | other results
[Cl][Mn-5]1234([Cl])[n+]5c6cccc5C[NH+]1[C@@H]1CCCC[C@H]1[NH+]2CC[NH+]3[C@@H]1CCCC[C@H]1[NH+]4C6 (stereo partly drawn) [KM4403] | decreased tumor size | – | antitumor effect of IL-2 in combination treatment [2]: potentiates the antitumor effect of IL-2
manganese [III] tetrakis-(5,10,15,20)-benzoic acid porphyrin [MnTBAP] | – | significant activity | –
CC(C)c1cc(C(=O)O)c([O-])c(C(C)C)c1.CC(C)c1cc(C(=O)O)c([O-])c(C(C)C)c1.[Cu+2] [CuDIPS, copper [II] diisopropylsalicylate] | – | significant activity | –
mangafodipir | – | significant activity | –
[Cl][Mn-5]1234([Cl])[n+]5c6cccc5C[NH+]1[C@H]1CCCC[C@@H]1[NH+]2CC[NH+]3[C@H]1CCCC[C@@H]1[NH+]4C6 (stereo partly drawn) [KM4419] | decreased tumor size | – | tumor recurrence [4]: delayed recurrence; tumor size ([4]; compared with gemcitabine alone): decreased the tumor size more effectively than gemcitabine alone; effectiveness on tumor growth [5]: more effective than either drug taken alone
